Data on two compounds can be found in US10765639B2, “Nanocapsules, methods of manufacture and uses thereof” (ADISSEO FRANCE S.A.S., priority 2016, dated 2020).

Data set [1] in a line: Bioavailability of TAC in vivo in roosters (plasma free tocopherol after force-feeding). Set-up: species or system ISA Brown roosters; AUC 24 h (Room 1) / AUC 96 h (Room 1) / AUC 24 h (Room 2) / AUC 96 h (Room 2): concentration or dose not given beside the values. The conditions noted are these: for AUC 24 h (Room 1) / AUC 96 h (Room 1): Room 1, force-feeding; for AUC 24 h (Room 2) / AUC 96 h (Room 2): Room 2, force-feeding. The source says: The experimental scheme is described in detail in Preveraud et al. 2015, British Poultry Science, 56: 1; 94-102.
Briefly, two rooms with 60 ISA Brown roosters are placed in individual cages. One week before assigning the treatments, the roosters are fed with a feed devoid of vitamin E.
The roosters (n=10 roosters per treatment) were force-fed with different TAC solutions in water.
Room 1: Dry nanocapsules C24 of example 1, • TOL and TAC, in the form of oil, as a blank
Room 2: C40 dry nanocapsules of example 1, • TOL and TAC, in the form of oil, as a blank.
After the force-feeding administration of the vitamin E products put in a capsule, blood samples were taken at 0, 6, 12, 24, 48 and 96 h post force-feeding. After centrifugation, the plasma is decanted and the free tocopherol is measured up by HPLC.

The conditions of data set [2]: oral administration, native vitamin E; cited from earlier work.

Some results are limits rather than exact numbers.

For `CC(=O)Oc1c(C)c(C)c2c(c1C)CCC(C)(CCC[C@H](C)CCC[C@H](C)CCCC(C)C)O2` (stereo partly drawn) [TAC, alpha-tocopherol acetate], in data set [1], the “AUC 24 h (Room 1)” value came out at 206 µg/mL/h, the “AUC 96 h (Room 1)” value stood at 597 µg/mL/h, the “AUC 24 h (Room 2)” value came out at 142 µg/mL/h and the “AUC 96 h (Room 2)” value was found to be 340 µg/mL/h.

tocopherol [TOL]: the “%/TAC 24 h (Room 1)” value in data set [1] (Room 1, 24 h, diffusion percentage relative to TAC) is listed as “+49%”. In data set [1] (Room 1, 96 h, diffusion percentage relative to TAC), the “%/TAC 96 h (Room 1)” value was “+100%”. In data set [1], the “AUC 24 h (Room 1)” value stood at 307 µg/mL/h, the “AUC 96 h (Room 1)” value stood at 1193 µg/mL/h, the “AUC 24 h (Room 2)” value came out at 309 µg/mL/h and the “AUC 96 h (Room 2)” value is 320 µg/mL/h. Besides, in data set [1] (Room 2, 24 h, diffusion percentage relative to TAC), the “%/TAC 24 h (Room 2)” value is given as “+118%”. Moreover, in data set [1] (Room 2, 96 h, diffusion percentage relative to TAC), the “%/TAC 96 h (Room 2)” value is recorded as “+124%”. Besides, the “Bioavailability in animals when orally administered” value in data set [2] is reported as ≤ 50%.
